Assays:
pAkt (phospho-Akt) = experiment: phospho AKT induction assay; type: cell-based; details: in each study (Example 284); cells treated with an EC80 of the compound
Method: In a 6-well tissue culture plate cells were seeded at 5×10^5 cells per well overnight. […] Determination of protein concentration was performed using the Pierce BCA Protein Assay Kit (Rockford, Ill.). Levels of pAkt (Ser^473) and total Akt were assessed using bead kits from Biosource (Carlsbad, Calif.) and the Luminex Bio-Plex system (Bio-Rad, Hercules, Calif.).

[1] = Body weight change over the course of treatment in the xenograft study, as an indicator of safety; type: in vivo, Taconic nude mice; details: 50 and 100 mg/kg, orally daily for 21 days

CNC(=O)c1ccc2c(c1)OCCc1cc(C(=O)N(C)c3ccc(C(=O)N(C)C)cc3Cl)sc1-2 [Compound 223, N2-(2-chloro-4-(dimethylcarbamoyl)phenyl)-N2,N8-dimethyl-4,5-dihydrobenzo[b]thieno[2,3-d]oxepine-2,8-dicarboxamide]
pAkt (phospho-Akt), a potential biomarker of PI3K signal transduction disruption (pAkt (phospho-Akt)): suppressed pAkt
body weights compared with the group administered Vehicle [1]: did not significantly differ

From patent US8846762B2, “Benzopyran and benzoxepin PI3K inhibitor compounds and methods of use” (Genentech, Inc., priority 2008, dated 2014)
